The results in this text go back to patent US20120021437A1, “TETRANOR-PGDM/PGJM SPECIFIC IMMUNOGENS, ANTIBODIES, TRACERS, ASSAY KITS AND METHODS FOR MAKING SAME” (Cayman Chemical Company, Incorporated, priority 2010, published 2012).

Bounds are passed on as bounds.

The assay has as its system Tetranor-PGDM EIA Antiserum. As to the kind of experiment: Cross-reactivity testing of the antibody in competitive tetranor-PGDM EIA. To be noted: Specificity of the Tetranor-PGDM EIA Antiserum; Example 3 Step D2c.
Experimental: To determine cross-reactivity of an antibody, the standard curve using optimal tracer and Ab dilutions according the kit instructions was set up. Tetranor PGDM was diluted to 10 ng/mL for the first point in the standard curve and diluted 2.5-fold serially 7 times. First standard dilutions (10 μg/mL) of tetranor-PGJM, tetranor-PGEM, tetranor-PGFM, PGA2, PGD2, PGE2, PGF2α, PGJ2, 13,14-dihydro-15-keto PGD2, 13,14-dihydro-15-keto-PGE2, 13,14-dihydro-15-keto-PGF2, were prepared and 7 additional 6-fold serial dilutions were performed. IC50s of all compounds were determined and each percent cross-reactivity (% XR) values of the potentially cross-reactive compounds was determined by dividing the IC50 of tetranor-PGDM by the IC50 of the test compound and multiplying by 100.
`O=C(O)CCCCC(=O)CC[C@H]1[C@H](O)CC(=O)[C@@H]1CCC(=O)O` [tetranor-PGEM]: the “Cross-reactivity (% XR)” value was found to be 0.3%.

For `O=C(O)CCCCC(=O)CC[C@@H]1[C@@H](CCC(=O)O)[C@@H](O)C[C@H]1O` [tetranor-PGFM], the “Cross-reactivity (% XR)” value is recorded as less than 0.01%.

Consider `CCCCCC(=O)CC[C@H]1C(=O)C[C@H](O)[C@@H]1C/C=C\CCCC(=O)O` [13,14-dihydro-15-keto Prostaglandin D2], for which the “Cross-reactivity (% XR)” value is less than 0.01%.

On to `CCCCC[C@H](O)/C=C/[C@H]1C(=O)C[C@H](O)[C@@H]1C/C=C\CCCC(=O)O` [Prostaglandin D2], for which the “Cross-reactivity (% XR)” value is less than 0.01%.

`CCCCC[C@H](O)/C=C/[C@H]1C=CC(=O)[C@@H]1C/C=C\CCCC(=O)O` [Prostaglandin A2]: the “Cross-reactivity (% XR)” value is less than 0.01%.

Turning to `O=C(O)CCCCC(=O)CC[C@H]1C(=O)C[C@H](O)[C@@H]1CCC(=O)O` [tetranor-PGDM, 9α-hydroxy-11,15-dioxo-13,14-dihydro-2,3,4,5-tetranor-prostan-1,20-dioic acid], the “Cross-reactivity (% XR)” value worked out at 100%.

With `CCCCCC(=O)CC[C@H]1[C@H](O)CC(=O)[C@@H]1C/C=C\CCCC(=O)O` [13,14-dihydro-15-keto Prostaglandin E2], the “Cross-reactivity (% XR)” value was less than 0.01%.

Turning to Prostaglandin F2α, the “Cross-reactivity (% XR)” value was less than 0.01%.

As for `CCCCC[C@H](O)/C=C/[C@H]1[C@H](O)CC(=O)[C@@H]1C/C=C\CCCC(=O)O` [Prostaglandin E2], the “Cross-reactivity (% XR)” value is on record as less than 0.01%.

In the case of `CCCCC[C@H](O)/C=C/[C@H]1C(=O)C=C[C@@H]1C/C=C\CCCC(=O)O` [Prostaglandin J2], the “Cross-reactivity (% XR)” value is recorded as less than 0.01%.

As for `O=C(O)CCCCC(=O)CC[C@H]1C(=O)C=C[C@@H]1CCC(=O)O` [tetranor-PGJM], the “Cross-reactivity (% XR)” value is recorded as 376%.

Take `CCCCCC(=O)CC[C@@H]1[C@@H](C/C=C\CCCC(=O)O)[C@@H](O)C[C@H]1O` [13,14-dihydro-15-keto Prostaglandin F2α]: the “Cross-reactivity (% XR)” value is reported as less than 0.01%.
